Reference: patent publication US9828379B2 (priority 2013, dated 2017)

Legend:
ABHD6 [1] = molecular target: T1, ABHD6 (Mus musculus, UniProt Q8R2Y0); experiment: biochemical; conditions: in vitro competitive ABPP
T1 sequence (Q8R2Y0 1-336): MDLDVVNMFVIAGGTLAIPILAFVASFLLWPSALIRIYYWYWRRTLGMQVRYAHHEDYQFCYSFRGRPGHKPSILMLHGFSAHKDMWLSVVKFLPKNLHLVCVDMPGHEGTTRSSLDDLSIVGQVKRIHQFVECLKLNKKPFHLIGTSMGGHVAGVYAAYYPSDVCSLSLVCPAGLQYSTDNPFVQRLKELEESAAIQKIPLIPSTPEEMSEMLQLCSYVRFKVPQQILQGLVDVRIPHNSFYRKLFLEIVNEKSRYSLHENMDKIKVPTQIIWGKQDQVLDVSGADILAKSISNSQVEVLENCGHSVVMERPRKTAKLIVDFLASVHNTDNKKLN

MAGL [2] = molecular target: T2, MAGL (Mus musculus, UniProt O35678); experiment: In vitro competitive activity-based protein profiling (Table 2, % inhibition at 1 μM); assay type: biochemical; conditions: read-out: % Inhibition at 1 μM MAGL
T2 sequence (O35678 1-303): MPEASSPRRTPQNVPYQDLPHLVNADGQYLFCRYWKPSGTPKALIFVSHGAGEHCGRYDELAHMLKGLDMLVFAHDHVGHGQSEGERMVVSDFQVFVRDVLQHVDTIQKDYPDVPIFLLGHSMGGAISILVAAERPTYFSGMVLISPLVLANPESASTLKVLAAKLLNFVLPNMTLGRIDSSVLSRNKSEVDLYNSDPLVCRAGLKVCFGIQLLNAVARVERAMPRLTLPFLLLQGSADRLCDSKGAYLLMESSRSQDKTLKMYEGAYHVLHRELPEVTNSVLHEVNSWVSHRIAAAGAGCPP
Protocol: After 30 min, FP—Rh (1.0 μL, 50 μM in DMSO) was added and the mixture was incubated for another 30 min at 37° C. Reactions were quenched with SDS loading buffer (50 μL-4×) and run on SDS-PAGE.
Cell lysates were diluted with mock proteomes for use in competitive ABPP experiments.

MAGL [3] = molecular target: T2, MAGL; experiment: biochemical; conditions: mouse; in vitro competitive ABPP; read-out: Mouse (IC50 value, nM) MAGL
ABHD6 [4] = molecular target: T1, ABHD6; experiment: In vitro competitive activity-based protein profiling (Table 2, % inhibition at 1 μM); assay type: biochemical; conditions: read-out: % Inhibition at 1 μM ABHD6
FAAH [5] = molecular target: T3, FAAH (Mus musculus, UniProt O08914); experiment: as above; assay type: biochemical; conditions: read-out: % Inhibition at 1 μM FAAH
T3 sequence (O08914 1-579): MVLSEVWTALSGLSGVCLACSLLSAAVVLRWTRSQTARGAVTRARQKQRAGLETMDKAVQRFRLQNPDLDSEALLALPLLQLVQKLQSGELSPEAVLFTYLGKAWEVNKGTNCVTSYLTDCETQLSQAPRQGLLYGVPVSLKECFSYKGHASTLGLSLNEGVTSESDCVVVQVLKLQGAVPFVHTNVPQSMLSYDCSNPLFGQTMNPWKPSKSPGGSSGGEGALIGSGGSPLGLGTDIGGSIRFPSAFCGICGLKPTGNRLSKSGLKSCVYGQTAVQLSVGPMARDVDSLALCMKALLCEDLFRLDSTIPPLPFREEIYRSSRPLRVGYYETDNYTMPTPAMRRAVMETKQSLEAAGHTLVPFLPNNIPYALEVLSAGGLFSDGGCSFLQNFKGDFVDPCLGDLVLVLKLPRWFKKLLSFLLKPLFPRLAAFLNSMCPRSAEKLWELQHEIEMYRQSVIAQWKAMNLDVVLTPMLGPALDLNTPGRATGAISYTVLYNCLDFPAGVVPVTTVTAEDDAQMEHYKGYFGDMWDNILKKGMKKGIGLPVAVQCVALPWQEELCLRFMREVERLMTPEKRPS

FAAH [6] = molecular target: T3, FAAH; experiment: biochemical; conditions: in vitro competitive ABPP

Compound | IC50 (ABHD6 [1]) [nM] | inhibition at 1 µM (MAGL [2]) [%] | IC50 (MAGL [3]) [nM] | inhibition at 1 µM (ABHD6 [4]) [%] | inhibition at 1 µM (FAAH [5]) [%] | IC50 (FAAH [6]) [nM]
O=C(OC(C(F)(F)F)C(F)(F)F)N1CC2CN(Cc3ccc(F)cc3N3CCCC3)CC2C1 (stereo not drawn) [Example 15, 1,1,1,3,3,3-Hexafluoropropan-2-yl 5-[[4-fluoro-2-(pyrrolidin-1-yl)phenyl]methyl]-octahydropyrrolo[3,4-c]pyrrole-2-carboxylate] | 1000 to 10000 | > 75 | 100 to 1000 | < 25 | 25 to 75 | 1000 to 10000
O=C(OC(C(F)(F)F)C(F)(F)F)N1CC2CN(Cc3c(N4CC5COCC5C4)cccc3C(F)(F)F)CC2C1 (stereo not drawn) [Example 209, 1,1,1,3,3,3-hexafluoropropan-2-yl 5-(2-(tetrahydro-1H-furo[3,4-c]pyrrol-5(3H)-yl)-6-(trifluoromethyl)benzyl)hexahydropyrrolo[3,4-c]pyrrole-2(1H)-carboxylate] | 1000 to 10000 | > 75 | 100 to 1000 | 25 to 75 | < 25 | > 10000
O=C(OC(C(F)(F)F)C(F)(F)F)N1CC2CN(Cc3cc(CN4CCCCC4)ccc3OC(F)(F)F)CC2C1 (stereo not drawn) [Example 189, 1,1,1,3,3,3-hexafluoropropan-2-yl 5-(5-(piperidin-1-ylmethyl)-2-(trifluoromethoxy)benzyl)hexahydropyrrolo[3,4-c]pyrrole-2(1H)-carboxylate] | 1000 to 10000 | > 75 | 100 to 1000 | < 25 | < 25 | 1000 to 10000
CC(C)c1ccc(CN2CC3CN(C(=O)OC(C(F)(F)F)C(F)(F)F)CC3C2)c(N2CCOCC2)c1 (stereo not drawn) [Example 22, 1,1,1,3,3,3-Hexafluoropropan-2-yl 5-[[2-(morpholin-4-yl)-4-(propan-2-yl)phenyl]methyl]-octahydropyrrolo[3,4-c]pyrrole-2-carboxylate] | 1000 to 10000 | > 75 | 100 to 1000 | < 25 | < 25 | 1000 to 10000
O=C(OC(C(F)(F)F)C(F)(F)F)N1CC2CN(Cc3ccc(Cl)cc3N3CCC3)CC2C1 (stereo not drawn) [Example 39, 1,1,1,3,3,3-Hexafluoropropan-2-yl 5-[[2-(azetidin-1-yl)-4-chlorophenyl]methyl]-octahydropyrrolo[3,4-c]pyrrole-2-carboxylate] | 1000 to 10000 | > 75 | < 100 | < 25 | 25 to 75 | 100 to 1000
O=C(OC(C(F)(F)F)C(F)(F)F)N1CC2CN(Cc3cc(CN4CCCCC4)cc(OC(F)(F)F)c3)CC2C1 (stereo not drawn) [Example 184, 1,1,1,3,3,3-hexafluoropropan-2-yl 5-(3-(piperidin-1-ylmethyl)-5-(trifluoromethoxy)benzyl)hexahydropyrrolo[3,4-c]pyrrole-2(1H)-carboxylate] | 1000 to 10000 | > 75 | 100 to 1000 | < 25 | < 25 | 1000 to 10000
O=C(OC(C(F)(F)F)C(F)(F)F)N1CC2CN(Cc3ccc(Cl)cc3N3CCC4(CCOCC4)C3)CC2C1 (stereo not drawn) [Example 31, 1,1,1,3,3,3-Hexafluoropropan-2-yl 5-[(4-chloro-2-[8-oxa-2-azaspiro[4.5]decan-2-yl]phenyl)methyl]-octahydropyrrolo[3,4-c]pyrrole-2-carboxylate] | 1000 to 10000 | > 75 | < 100 | < 25 | < 25 | 1000 to 10000
Cn1nc(-c2ccccc2)cc1CN1CC2CN(C(=O)OC(C(F)(F)F)C(F)(F)F)CC2C1 (stereo not drawn) [Example 194, 1,1,1,3,3,3-hexafluoropropan-2-yl 5-((1-methyl-3-phenyl-1H-pyrazol-5-yl)methyl)hexahydropyrrolo[3,4-c]pyrrole-2(1H)-carboxylate] | 1000 to 10000 | > 75 | < 100 | < 25 | 25 to 75 | 1000 to 10000
O=C(OC(C(F)(F)F)C(F)(F)F)N1CC2CN(Cc3ccc(Cl)cc3N3Cc4cccnc4C3)CC2C1 (stereo not drawn) [Example 32, 1,1,1,3,3,3-Hexafluoropropan-2-yl 5-[(4-chloro-2-[5H,6H,7H-pyrrolo[3,4-b]pyridin-6-yl]phenyl)methyl]-octahydropyrrolo[3,4-c]pyrrole-2-carboxylate] | 1000 to 10000 | > 75 | < 100 | 25 to 75 | 25 to 75 | 1000 to 10000
Cc1cccc(CN2CC3CN(C(=O)OC(C(F)(F)F)C(F)(F)F)CC3C2)c1N1CCN(C)CC1 (stereo not drawn) [Example 147, 1,1,1,3,3,3-hexafluoropropan-2-yl 5-[[3-methyl-2-(4-methylpiperazin-1-yl)phenyl]methyl]-octahydropyrrolo[3,4-c]pyrrole-2-carboxylate] | > 10000 | > 75 | 100 to 1000 | < 25 | < 25 | > 10000
Cc1cccc(CN2CC3CN(C(=O)OC(C(F)(F)F)C(F)(F)F)CC3C2)c1N1CCCCC1 (stereo not drawn) [Example 30, 1,1,1,3,3,3-Hexafluoropropan-2-yl 5-[[3-methyl-2-(piperidin-1-yl)phenyl]methyl]-octahydropyrrolo[3,4-c]pyrrole-2-carboxylate] | 1000 to 10000 | > 75 | 100 to 1000 | < 25 | < 25 | > 10000
Cn1nc(-c2cccc(F)c2)cc1CN1CC2CN(C(=O)OC(C(F)(F)F)C(F)(F)F)CC2C1 (stereo not drawn) [Example 195, 1,1,1,3,3,3-hexafluoropropan-2-yl 5-((3-(3-fluorophenyl)-1-methyl-1H-pyrazol-5-yl)methyl)hexahydropyrrolo[3,4-c]pyrrole-2(1H)-carboxylate] | 100 to 1000 | > 75 | < 100 | 25 to 75 | < 25 | 1000 to 10000
CC1COCCN1c1ccc(CN2CC3CN(C(=O)OC(C(F)(F)F)C(F)(F)F)CC3C2)c(Cl)c1 (stereo not drawn) [Example 27, 1,1,1,3,3,3-Hexafluoropropan-2-yl 5-[[2-chloro-4-(3-methylmorpholin-4-yl)phenyl]methyl]-octahydropyrrolo[3,4-c]pyrrole-2-carboxylate] | 1000 to 10000 | > 75 | < 100 | < 25 | 25 to 75 | 1000 to 10000
CC1COCCN1c1ccc(CN2CC3CN(C(=O)ON4C(=O)CCC4=O)CC3C2)c(Cl)c1 (stereo not drawn) [Example 102, 2,5-Dioxopyrrolidin-1-yl 5-[[2-chloro-4-(3-methylmorpholin-4-yl)phenyl]methyl]-octahydropyrrolo[3,4-c]pyrrole-2-carboxylate] | 1000 to 10000 | 25 to 75 | 100 to 1000 | < 25 | 25 to 75 | 1000 to 10000
O=C(OC(C(F)(F)F)C(F)(F)F)N1CC2CN(Cc3ccc(C(=O)N4CCCCC4)c(OC(F)(F)F)c3)CC2C1 (stereo not drawn) [Example 192, 1,1,1,3,3,3-hexafluoropropan-2-yl 5-(4-(piperidine-1-carbonyl)-3-(trifluoromethoxy)benzyl)hexahydropyrrolo[3,4-c]pyrrole-2(1H)-carboxylate] | 1000 to 10000 | > 75 | 100 to 1000 | 25 to 75 | < 25 | > 10000
